Reference: patent US20140274683A1, “COMPOSITIONS AND METHODS FOR REPELLING POLLINATING INSECTS AND PROTECTING PLANTS AND CROPS AGAINST INSECTS AND/OR NEMATODES” (Bayer CropScience LP, priority 2013, published 2014)

Tests used:
[1] = Stability test of Poncho combined with Eugenol, clothianidin content by HPLC; format: physicochemical; conditions: up to 54° C. for seven days
Description: Table 6 describes a stability test with a combination of Eugenol and Poncho evaluated at room temperature, 40° C., and 54° C. at zero time, 3 days, and 7 days as confirmed by high performance liquid chromatography (HPLC).

[2] = Stability test of Poncho 600 combined with α-terpineol, clothianidin content by HPLC; format: physicochemical; conditions: combined with alpha-terpineol, up to 54° C. for eight days
Description: Table 7 describes a stability test with a combination of α-terpineol and Poncho 600 evaluated at room temperature, 40° C., and 54° C. at zero time, 2 days, and 8 days as confirmed by HPLC.

Honeybees = assay: Honeybee repulsion experiment at feeding stations with 50% sucrose; format: in vivo; conditions: 2% by weight in combination with 50% sucrose, feeding station
Description: FIG. 1 describes the feeding station arrangement (A and B) for the honeybee repulsion experiments described herein. As set forth in FIG. 1, panel (A) sets forth the bee cage positions on the left portion of panel (A) with the randomized feeding station positions on the right portion of panel (A). Panel (B) sets forth an alignment of the randomized feeding station positions with a distance of two meters between feeding stations. A total of eight feeding stations were evaluated at a ten meter distance in front of the respective bee hives. The feeding stations were placed two meters apart from one another.
Honeybees were trained to deep feeders (eight positions), each containing a 50% sucrose solution for one day. After the honeybees were trained to each feeder, the 50% sucrose feeder at randomized positions 1-8 was replaced with a shallow feeder containing a combination of repelling compounds and a 50% sucrose solution according to Table 5. In accordance with FIGS. 5 and 6, 2% by weight of Camphor oil (T4), Ajowan oil (T5), Camphor powder (T6), Rosemary oil (T7), and 2-Decanone (T8) in combination with a 50% sucrose treatment were added to feeders on day two.
Table 5 describes active agents evaluated for bee repulsion and their randomized feeding station positions. As described in Table 5, T1 (control), T2 (control), T3 (control), T4 (Camphor oil), T5 (Ajowan oil), T6 (Camphor powder), T7 (Rosemary oil), and T8 (2-Decanone).
FIG. 5 evaluates the number of bees visiting a respective feed station over a time interval. FIG. 6 sets forth the mean number of honeybees visiting feeding station over a period of four hours.

SMILES	Chemical stability of clothianidin content in Poncho [1]	Chemical stability of clothianidin content in Poncho [2]	Honeybee repellency over the 4 hour assessment period (Honeybees; 4 hour assessment period)	Honeybee repellency at 24 hours (Honeybees)	Honeybee repellency at 24 hours (Honeybees; listed as 2-decanone)
CN/C(=N\[N+](=O)[O-])NCc1cnc(Cl)s1 [clothianidin]	exhibited chemical stability	exhibited chemical stability	–	–	–
CCCCCCCCC(C)=O [Compound 2-Decanone, 2-decanone]	–	–	highly repellent	exhibited repellency	still repellent
